# Test results taken from US11690828B2, “Treatment of CNS diseases with sGC stimulators” (Cyclerion Therapeutics, Inc., priority 2016, dated 2023).
# Legend:
# rats [1] = assay: Kaolin - gait score; format: in vivo, rat; settings: Compound I-2 p.o. 10 mg/kg; 120 minutes after treatment
# Procedure: Kaolin. Induction: In rats, unilateral arthritis was induced by an intra-articular injection of a 10% kaolin suspension into the knee joint of the right hind paw under gas anesthesia (3.5% isoflurane/3 L/min). Gait score: The gait score will be evaluated 3 h 30 min after kaolin administration by:
# 2: intermittent raising of the paw
# (§1) Testing: 120 minutes after treatment. N=4/model/test. Results are expressed for each group as a percentage of activity calculated from the mean value of the vehicle-treated animals and compared to naïve animals, control paw, or cut-off value, depending on the test.
# male Long Evans rats = assay: Novel Object Recognition (NOR) test, MK-801-induced memory deficit; format: in vivo, rat
# rats [2] = assay: Acetic acid test - abdominal cramps; format: in vivo, rat; settings: Compound I-2 p.o. 10 mg/kg; 120 minutes after treatment
# Procedure: Acetic Acid Test. Abdominal contraction was induced by intraperitoneal injection of 0.6% acetic acid solution in rats (10 mL/kg). The number of writhing (a twisting or contorting of the body due to pain) was recorded from the 5th to the 15th minute after injection.
# as §1
# rats [3] = assay: Brennan model - electronic Von Frey test; format: in vivo, rat; settings: Compound I-2 p.o. 10 mg/kg; 120 minutes after treatment
# Description: Brennan Model. Surgery: Surgery was done under gas anesthesia (2.5% isoflurane/3 L/min). For all rats, the plantar aspect of the left hind paw was exposed and a 1 cm longitudinal incision was made using a surgical blade, through the skin and fascia of the plantar aspect of the foot, starting 0.5 cm from the proximal edge of the heel and extending toward the toes. The plantaris muscle was elevated and incised longitudinally whereas the insertions remained intact. After hemostasis with gentle pressure, the skin was stitched up with two sutures. After surgery, animals recovered in their cages.
# Electronic Von Frey Test. Tactile allodynia was assessed using the electronic Von Frey test 24 h after surgery. The test requires the application of an increasing pressure onto the plantar aspect of the hind paws. The apparatus exerted a steady force on the hind paws. Reaction thresholds were determined as the pressure (g) required to elicit paw withdrawal. Each reaction threshold measurement was repeated three times for both hind paws with intervals of approximately 2 to 3 mins.
# as §1
# rats [4] = assay: Carrageenan - paw pressure test; format: in vivo, rat; settings: Compound I-2 p.o. 10 mg/kg; 120 minutes after treatment
# Procedure: Paw Pressure Test. Static mechanical hyperalgesia is measured. This test requires the application of an increasing pressure on the hind paws between a flat surface and a blunt pointer. To evaluate the analgesic action of a compound, one hind paw of the animal was inflamed by an injection or injured by ligation, while the other hind paw was not injured or inflamed. The apparatus exerted a steadily increasing force on the hind paws. The reaction threshold was determined as the pressure (g) required to elicit paw withdrawal and/or vocalization. The animals were gently handled by the experimenter and static mechanical hyperalgesia were assessed two times for both hind paws.
# Carrageenan. Induction: Three hours before assessment of the nociceptive threshold using the paw pressure test 100 μL of a 2% carrageenan suspension was injected into the plantar aspect of the right hind paw. The Paw Pressure test was then conducted as described above.
# as §1
# CREB = assay: pCREB phosphorylation in rat primary neurons; format: cell-based; settings: Primary neuron, 0.5 h, 30 μM DETA-NONOate, 30 min, 95% confidence interval 0.07 nM to 4.44 nM, read-out: EC50, phosphorylation of CREB at Ser133
# Procedure: Compounds. Compound I-5 was dissolved in DMSO as a 10 mM solution and stored at −20° C. To achieve desired test concentrations, stock concentrations were serially diluted into DMSO and then diluted to the appropriate concentration in assay buffer.
# Rat primary neurons culture. Neurons were isolated from Sprague Dawley rat embryos on embryonic day 18 (E18). Approximately 10 embryos were obtained from each rat, and whole brains were isolated from the embryos. Hippocampus and cortex were dissected from the brains under a stereoscopic microscope using two pairs of fine tweezers. The meninges were carefully removed. After dissection, the tissues were chopped and washed gently once with 10 mL of Ca^2+ and Mg^2+ free Hank's solution (HBSS, Corning cat #21-022-CM) in a 15-mL conical tube. After washing, 5 mL of a solution of 0.25% trypsin (Invitrogen cat #15090-046) and 0.1% deoxyribonuclease I (DNase I, Sigma cat #DN-25) were added to the tissues in the tube, which were then incubated at 37° C. for 15 min. […]
# Assay Conditions. […] Medium was removed and cell were lysed and assay was performed according to Cisbio protocol (phospho-CREB (Ser133) catalog #64CREPEG) and the plate was read using Envision instrument (PerkinElmer).
# Data Analysis. Data were analyzed with a 4-parameter fit (log(agonist) vs. response—variable slope) using GraphPad Prism Software v.7. […]
# [5] = I-2 0.1 mg/kg, compared to Vehicle/MK-801 group
SMILES,"% of activity vs. vehicle, kaolin gait score (rats [1])","Recognition Index, Mean (0 to 3 minute time bin) (male Long Evans rats; I-2 0.1 mg/kg oral + MK-801 0.1 mg/kg IP)","Reversal of MK-801-induced memory deficits, 0-3 minute time range (male Long Evans rats; [5])","Reversal of MK-801-induced memory deficits, 0-5 minute time range (male Long Evans rats; [5])","Recognition Index, Mean (0 to 3 minute time bin) (male Long Evans rats; I-2 1 mg/kg oral + MK-801 0.1 mg/kg IP)","Recognition Index, Mean (0 to 3 minute time bin) (male Long Evans rats; I-2 10 mg/kg oral + MK-801 0.1 mg/kg IP)","% of activity vs. vehicle, acetic acid test abdominal cramps (rats [2])","% of activity vs. vehicle, Brennan model electronic Von Frey test (rats [3])","% of activity vs. vehicle, carrageenan paw pressure test (rats [4])",EC50 (CREB)
Fc1ccccc1Cn1nc(-c2nc(C(F)(F)F)n[nH]2)c2cccnc21 [Compound I-2],88%,68.21%,significantly reversed,significantly reversed,63.98%,61.76%,59%,16%,75%,
FC(F)(F)c1n[nH]c(-c2nc(Cc3cncnc3)c3ccccn23)n1 [Compound I-5],,,,,,,,,,0.55 nM
